These results are taken from publication PMC3509222 (Molecular Microbiology, 2012).

This experiment addresses T1, full-length SgmT (His6-SgmT) (Myxococcus xanthus, UniProt Q1D3G7).
T1 sequence (Q1D3G7 1-836): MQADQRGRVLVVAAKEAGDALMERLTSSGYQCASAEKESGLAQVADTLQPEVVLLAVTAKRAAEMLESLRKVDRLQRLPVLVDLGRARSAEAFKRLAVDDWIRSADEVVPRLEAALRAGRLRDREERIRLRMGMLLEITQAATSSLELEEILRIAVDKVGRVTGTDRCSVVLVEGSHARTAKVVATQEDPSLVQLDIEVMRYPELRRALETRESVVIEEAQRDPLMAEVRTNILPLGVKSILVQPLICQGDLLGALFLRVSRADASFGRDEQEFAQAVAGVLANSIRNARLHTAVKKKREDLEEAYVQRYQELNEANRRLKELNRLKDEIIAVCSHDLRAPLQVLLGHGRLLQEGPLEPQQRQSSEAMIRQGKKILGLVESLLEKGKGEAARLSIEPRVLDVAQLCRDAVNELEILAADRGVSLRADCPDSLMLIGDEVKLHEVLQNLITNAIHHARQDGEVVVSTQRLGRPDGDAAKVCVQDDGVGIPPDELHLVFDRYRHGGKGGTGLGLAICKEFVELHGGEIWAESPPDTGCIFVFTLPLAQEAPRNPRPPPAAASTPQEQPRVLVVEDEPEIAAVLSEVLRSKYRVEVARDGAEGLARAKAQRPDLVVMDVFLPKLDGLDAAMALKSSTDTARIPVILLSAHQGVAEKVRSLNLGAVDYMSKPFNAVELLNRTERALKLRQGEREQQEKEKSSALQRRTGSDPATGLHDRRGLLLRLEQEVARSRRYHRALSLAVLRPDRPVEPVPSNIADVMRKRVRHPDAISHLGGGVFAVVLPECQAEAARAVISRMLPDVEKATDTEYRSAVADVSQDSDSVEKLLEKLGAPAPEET
As to conditions: labelled compound; 1.0 mM ATP, 10 mM MgCl2, Tris pH 8.0, 30°C, 30 min.

On to `Nc1ncnc2c1ncn2[C@@H]1O[C@H](COP(=O)(O)OP(=O)(O)OP(=O)(O)O)[C@@H](O)[C@H]1O` [[γ-^32P]-ATP], for which the “autophosphorylation, SDS-PAGE and phosphorimaging” value was “Autophosphorylation of full-length SgmT and phosphotransfer to DigR”.
